In publication PMC10803289, “Transport and inhibition mechanism of the human SGLT2–MAP17 glucose transporter” (Nature Structural & Molecular Biology, 2023):
Substitutions are numbered along the chain they refer to. Several values for one entry are separate records, joined by “and”; a condition that tells them apart may be missing. Identical values can stand only once.

Experiments:
[1] = target: T1, WT hSGLT2 (Homo sapiens, UniProt P31639); assay: α-MG uptake in hSGLT2-transfected HEK293 cells, WT; assay type: cell-based
T1 construct: expressed in transfected cells; host or cells: HEK293 cells (ECACC 85120602)
T1 sequence (P31639 1-672): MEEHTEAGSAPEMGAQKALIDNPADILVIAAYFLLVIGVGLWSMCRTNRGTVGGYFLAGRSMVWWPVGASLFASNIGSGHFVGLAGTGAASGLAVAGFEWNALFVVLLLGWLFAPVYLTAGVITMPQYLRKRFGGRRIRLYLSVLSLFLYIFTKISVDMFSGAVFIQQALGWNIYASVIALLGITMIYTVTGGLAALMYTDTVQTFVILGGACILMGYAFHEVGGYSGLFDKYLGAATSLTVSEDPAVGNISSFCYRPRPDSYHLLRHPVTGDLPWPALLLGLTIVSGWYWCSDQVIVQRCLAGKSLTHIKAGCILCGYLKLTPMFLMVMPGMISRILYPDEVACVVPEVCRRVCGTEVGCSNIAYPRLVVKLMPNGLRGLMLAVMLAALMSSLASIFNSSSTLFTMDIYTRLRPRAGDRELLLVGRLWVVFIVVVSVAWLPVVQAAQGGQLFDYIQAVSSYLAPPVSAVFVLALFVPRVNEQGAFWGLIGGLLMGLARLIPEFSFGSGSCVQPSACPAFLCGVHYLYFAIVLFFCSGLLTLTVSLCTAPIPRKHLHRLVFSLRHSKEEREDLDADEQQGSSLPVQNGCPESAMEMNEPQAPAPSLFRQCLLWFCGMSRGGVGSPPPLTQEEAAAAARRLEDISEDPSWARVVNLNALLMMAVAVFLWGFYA
T1 sequence (Q13113 1-114 partner): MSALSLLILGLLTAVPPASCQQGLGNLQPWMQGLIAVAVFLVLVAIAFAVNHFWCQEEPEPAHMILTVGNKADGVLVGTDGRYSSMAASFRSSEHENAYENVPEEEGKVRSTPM
Experimental: (§1) HEK293 cells (ECACC 85120602) were maintained in Dulbecco’s modified Eagle medium (Gibco) supplemented with 10% fetal bovine serum (Thermo Scientific), 2 mM L-glutamine, 100 U ml^−1 benzylpenicillin and 100 µg ml^−1 streptomycin at 37 °C in a humidified atmosphere (5% CO2 in air). HEK293 cells were seeded at 1.0 × 10^5 cells per well in poly-L-lysine coated 24-well plates. The cells in each well were transiently transfected with 0.25 µg hMAP17 plasmid and 0.50 µg hSGLT2 plasmid using Lipofectamine 2000 (Life Technologies) and cultured for 48 h. […] After preincubation, uptake was initiated by replacing the preincubation buffer with extracellular fluid buffer containing 500 μM α-MG in the absence or presence of inhibitors. Uptake was completed by removing the uptake buffer and washing with ice-cold buffer three times, followed by solubilization in 1 N NaOH at room temperature.
(§2) Cell lysates were deproteinized by adding acetonitrile containing candesartan as the internal standard. The α-MG concentration was quantified via liquid chromatography–tandem mass spectrometry (LC–MS/MS) using the internal standard method.
(§3) Cellular protein content was determined using a bicinchoninic acid protein assay kit (Thermo Fisher Scientific). The uptake of α-MG was expressed as the ratio of concentration in the cells (in pmol per mg protein) to concentration in the medium (in pmol μl^−1); this is known as the cell-to-medium ratio (in μl per mg protein).
(§4) In the inhibition study, the cell-to-medium ratio of cells transfected with the empty vector was used as the background. The specific α-MG uptake was calculated by subtracting this background from the total cell-to-medium ratio and normalized to the uptake achieved without the inhibitor. IC50 was calculated via nonlinear regression using GraphPad Prism 8.4.3.
(§5) The concentrations of the extract solution from the filter plate and of the cell lysate were quantified using a tandem mass spectrometry QTRAP6500 System (SCIEX) coupled with an ACQUITY UPLC system (Waters) using the internal standard method. Mobile phases A and B used 10 mM of ammonium bicarbonate and acetonitrile, respectively.

[2] = target: T2, hSGLT2 F453A (Homo sapiens, UniProt P31639, F453A); assay: α-MG uptake in HEK293 cells, F453A mutant; assay type: cell-based; set-up: expressed in transfected cells
T2 sequence (P31639 1-672 F453A): T1 sequence (P31639 1-672) with F453A
T2 sequence (Q13113 1-114 partner): T1 sequence (Q13113 1-114 partner)
Source text: hSGLT2 complementary DNA and human MAP17 cDNA were synthesized and codon-optimized for expression in human cell lines. Both cDNAs were cloned into the pcDNA3.4 vector. The hSGLT2 sequence was fused with an N-terminal signal sequence from human trypsinogen 1, a His10 tag, and sfGFP, followed by a human rhinovirus 3C protease (HRV3C protease) recognition site. Point mutations were introduced into this construct using site-directed mutagenesis. These plasmids were utilized for all experimental procedures conducted in this study.
as §1, §2, §3, §4, §5

O=C(CCc1ccc(O)cc1)c1c(O)cc(O)cc1O[C@@H]1O[C@H](CO)[C@@H](O)[C@H](O)[C@H]1O [Phlorizin]
remaining activity at 0.0003 µM ([1]; HEK293, Phlorizin 0.3 nM, WT, read-out: α-MG uptake (% of control)): 103%
remaining activity at 0.001 µM ([1]; HEK293, Phlorizin 1 nM, WT, read-out: α-MG uptake (% of control)): 101%
remaining activity at 0.01 µM ([1]; HEK293, Phlorizin 10 nM, WT, read-out: α-MG uptake (% of control)): 81.9%
remaining activity at 0.03 µM ([1]; HEK293, Phlorizin 30 nM, WT, read-out: α-MG uptake (% of control)): 53.8%
remaining activity at 0.1 µM ([1]; HEK293, Phlorizin 100 nM, WT, read-out: α-MG uptake (% of control)): 36.9%
remaining activity at 0.3 µM ([1]; HEK293, Phlorizin 300 nM, WT, read-out: α-MG uptake (% of control)): 18.1%
α-MG uptake (% of control) ([1]; Phlorizin 0.3 nM, WT): 107.5 % of control and 105.5 % of control
α-MG uptake (% of control) ([1]; Phlorizin 1 nM, WT): 114.0 % of control and 107.4 % of control
α-MG uptake (% of control) ([1]; Phlorizin 3 nM, WT): 83.9 % of control and 115.8 % of control and 121.5 % of control
α-MG uptake (% of control) ([1]; Phlorizin 10 nM, WT): 71.6 % of control and 84.5 % of control
α-MG uptake (% of control) ([1]; Phlorizin 30 nM, WT): 70.4 % of control and 72.9 % of control
α-MG uptake (% of control) ([1]; Phlorizin 100 nM, WT): 38.1 % of control and 34.4 % of control
α-MG uptake (% of control) ([1]; Phlorizin 300 nM, WT): 15.6 % of control and 11.8 % of control
α-MG uptake (% of control) ([2]; Phlorizin 0.3 nM): 102.6 % of control and 120.9 % of control and 125.2 % of control
α-MG uptake (% of control) ([2]; Phlorizin 1 nM): 103.4 % of control and 113.9 % of control and 124.6 % of control
α-MG uptake (% of control) ([2]; Phlorizin 3 nM): 96.6 % of control and 95.6 % of control and 68.3 % of control
α-MG uptake (% of control) ([2]; Phlorizin 10 nM): 133.1 % of control and 118.1 % of control and 89.5 % of control
α-MG uptake (% of control) ([2]; Phlorizin 30 nM): 123.6 % of control and 119.1 % of control and 101.2 % of control
α-MG uptake (% of control) ([2]; Phlorizin 100 nM): 126.1 % of control and 70.5 % of control and 71.8 % of control

CO[C@H]1O[C@H](CO)[C@@H](O)[C@H](O)[C@H]1O [α-MG, α-methyl-D-glucopyranoside]
α-MG uptake ([1]; Control (no inhibitor), hSGLT2 cells): 23.4464 μL/mg-protein and 18.7820 μL/mg-protein and 14.3913 μL/mg-protein and 26.3540 μL/mg-protein
α-MG uptake ([1]; Fig. 3h, WT): 101.43 μL/mg-protein and 101.01 μL/mg-protein and 97.56 μL/mg-protein
α-MG uptake ([1]; time course, 500 μM α-MG, 15 min, hSGLT2): 4.1190 μL/mg-protein and 4.1163 μL/mg-protein and 6.4519 μL/mg-protein
α-MG uptake ([1]; time course, 500 μM α-MG, 30 min, hSGLT2): 12.1536 μL/mg-protein and 10.6771 μL/mg-protein and 14.5344 μL/mg-protein
α-MG uptake ([2]; Fig. 3h): 21.78 μL/mg-protein and 20.01 μL/mg-protein and 27.75 μL/mg-protein
